Measured values published in publication PMC5359181 (Protein & Cell, 2016).
Where two headings read alike, the source gives them in different places.

Key:
[1] = biological target: T1, human equilibrative nucleoside transporter 1 (hENT1) (Homo sapiens, UniProt Q99808, N48Q); assay: proteoliposome competition assay with 3H-adenosine, […] reduction at […]; assay type: biochemical; conditions: read-out: % reduction at 500 μmol/L
T1 construct: gene SLC29A1; full-length, residues 1-456
T1 sequence (Q99808 1-456 N48Q): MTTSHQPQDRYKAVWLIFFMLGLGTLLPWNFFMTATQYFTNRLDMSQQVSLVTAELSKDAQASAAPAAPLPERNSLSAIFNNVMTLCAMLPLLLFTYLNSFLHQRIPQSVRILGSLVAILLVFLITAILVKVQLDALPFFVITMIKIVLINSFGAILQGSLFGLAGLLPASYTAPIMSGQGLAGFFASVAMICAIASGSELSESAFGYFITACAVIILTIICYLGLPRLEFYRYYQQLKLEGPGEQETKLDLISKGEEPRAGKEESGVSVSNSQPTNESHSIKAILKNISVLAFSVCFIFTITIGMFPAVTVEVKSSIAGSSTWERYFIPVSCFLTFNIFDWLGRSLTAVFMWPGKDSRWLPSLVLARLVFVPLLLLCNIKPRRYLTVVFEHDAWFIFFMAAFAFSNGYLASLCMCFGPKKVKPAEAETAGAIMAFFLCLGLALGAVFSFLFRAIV

[2] = biological target: T1, human equilibrative nucleoside transporter 1 (hENT1); assay: ITC; assay type: binding

| SMILES | inhibition at 500 µM [1] [%] | other results |
| --- | --- | --- |
| Cc1cn([C@@H]2O[C@H](CO)[C@@H](O)[C@H]2O)c(=O)[nH]c1=O [5-methyluridine] | > 90 |  |
| Nc1ncnc2nc[nH]c12 [adenine] |  | Kd [2]: 5 ± 0.5 mM |
| Nc1ncnc2c1ncn2[C@H]1C[C@H](O)[C@@H](CO)O1 [deoxyadenosine] |  | Kd ([2]; read-out: Kd): 0.19 ± 0.04 mM |
| Nc1nc2c(ncn2[C@H]2C[C@H](O)[C@@H](CO)O2)c(=O)[nH]1 [deoxyguanosine] | > 90 |  |
| O=c1ccn([C@H]2C[C@H](O)[C@@H](CO)O2)c(=O)[nH]1 [deoxyuridine] | > 90 |  |
| Cc1cn([C@H]2C[C@H](O)[C@@H](CO)O2)c(=O)[nH]c1=O [thymidine] | > 90 |  |
| O=c1ccn([C@@H]2O[C@H](CO)[C@@H](O)[C@H]2O)c(=O)[nH]1 [uridine] | > 90 |  |
